Test results from patent US11254663B2 (BRISTOL-MYERS SQUIBB COMPANY, priority 2019, dated 2022).

These compounds were tested against FXR (Homo sapiens (Human), UniProt Q96RI1) (assay: transient human FXR/Gal4-luciferase reporter assay). Conditions: not given.
Type: cell-based
Outline: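 HEK293 cells stably carrying a 5×Gal4 response element–firefly luciferase reporter were transiently transfected overnight with a Gal4 DBD–human FXR LBD fusion plasmid. Compound was added in DMSO and cells were incubated overnight at 37 °C, 5% CO2. Activity was read as Steady-Glo luminescence.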

Sequence of FXR (Q96RI1 262-486): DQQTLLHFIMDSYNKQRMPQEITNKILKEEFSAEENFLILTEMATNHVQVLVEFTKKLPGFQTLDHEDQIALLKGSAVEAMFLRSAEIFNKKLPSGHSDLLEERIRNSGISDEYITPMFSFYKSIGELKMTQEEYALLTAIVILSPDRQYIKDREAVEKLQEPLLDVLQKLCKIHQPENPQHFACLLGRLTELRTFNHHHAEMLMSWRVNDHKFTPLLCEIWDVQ

Row | SMILES | EC50 [µM]
1 | Cc1nc2ccc(-c3cccc(N(CC45CCC(c6nc(C7CC7)no6)(CC4)CC5)C(=O)C45CC(F)(C4)C5)c3)cc2s1 [Example 555, N-((4-(3-cyclopropyl-1,2,4-oxadiazol-5-yl)bicyclo[2.2.2]octan-1-yl)methyl)-3-fluoro-N-(3-(2-methylbenzo[d]thiazol-6-yl)phenyl)bicyclo[1.1.1]pentane-1-carboxamide] | 0.055
2 | CCOc1ncc(-c2cccc(N(CC34CCC(c5noc(C(C)(C)C)n5)(CC3)CC4)C(=O)C3CC(O)(C(F)(F)F)C3)c2)cn1 [Example 509, (1S,3S)—N-((4-(5-(tert-butyl)-1,2,4-oxadiazol-3-yl)bicyclo[2.2.2]octan-1-yl)methyl)-N-(3-(2-ethoxypyrimidin-5-yl)phenyl)-3-hydroxy-3-(trifluoromethyl)cyclobutane-1-carboxamide] | 0.23
3 | COc1cnc(-c2cccc(N(CC34CCC(c5ccc(C(F)(F)F)cn5)(CC3)CC4)C(=O)C34CC(F)(C3)C4)c2)nc1 [Example 500, 3-fluoro-N-(3-(5-methoxypyrimidin-2-yl)phenyl)-N-((4-(5-(trifluoromethyl)pyridin-2-yl)bicyclo[2.2.2]octan-1-yl)methyl)bicyclo[1.1.1]pentane-1-carboxamide] | 0.81
4 | CC(C)(C)c1nc(C23CCC(CN(C(=O)C45CC(F)(C4)C5)c4cncc(-c5ccc(NS(C)(=O)=O)cc5)c4)(CC2)CC3)no1 [Example 481, N-((4-(5-(tert-butyl)-1,2,4-oxadiazol-3-yl)bicyclo[2.2.2]octan-1-yl)methyl)-3-fluoro-N-(5-(4-(methylsulfonamido)phenyl)pyridin-3-yl)bicyclo[1.1.1]pentane-1-carboxamide] | 0.58
5 | CC(C)(C)c1nc(C23CCC(CN(C(=O)C45CC(F)(C4)C5)c4cncc(-c5ccc6[nH]c(=O)oc6c5)c4)(CC2)CC3)no1 [Example 479, N-((4-(5-(tert-butyl)-1,2,4-oxadiazol-3-yl)bicyclo[2.2.2]octan-1-yl)methyl)-3-fluoro-N-(5-(2-oxo-2,3-dihydrobenzo[d]oxazol-6-yl)pyridin-3-yl)bicyclo[1.1.1]pentane-1-carboxamide] | 0.367
6 | CCOc1ccc(-c2cncc(N(CC34CCC(c5nc(C(C)(C)C)no5)(CC3)CC4)C(=O)C34CC(F)(C3)C4)c2)cc1 [Example 476, N-((4-(3-(tert-butyl)-1,2,4-oxadiazol-5-yl)bicyclo[2.2.2]octan-1-yl)methyl)-N-(5-(4-ethoxyphenyl)pyridin-3-yl)-3-fluorobicyclo[1.1.1]pentane-1-carboxamide] | 0.56
7 | CC(C)(C)c1nc(C23CCC(CN(C(=O)C45CC(F)(C4)C5)c4cc(-c5cnc6nc(C7CC7)sc6c5)ccn4)(CC2)CC3)no1 [Example 535, N-((4-(5-(tert-butyl)-1,2,4-oxadiazol-3-yl)bicyclo[2.2.2]octan-1-yl)methyl)-N-(4-(2-cyclopropylthiazolo[4,5-b]pyridin-6-yl)pyridin-2-yl)-3-fluorobicyclo[1.1.1]pentane-1-carboxamide] | 0.202
8 | O=C(N(CC12CCC(c3nc(C(F)F)no3)(CC1)CC2)c1cccc(-c2ccc(OC(F)F)cc2)c1)C12CC(F)(C1)C2 [Example 468, N-(4′-(difluoromethoxy)-[1,1′-biphenyl]-3-yl)-N-((4-(3-(difluoromethyl)-1,2,4-oxadiazol-5-yl)bicyclo[2.2.2]octan-1-yl)methyl)-3-fluorobicyclo[1.1.1]pentane-1-carboxamide] | 0.184

Same assay, conditions: Gal4-hFXR fusion construct, HEK293 reporter cells; response relative to 8 μM GW-4064

Row | SMILES | EC50 [µM]
9 | O=C(N(CC12CCC(c3noc(C(F)(F)F)n3)(CC1)CC2)c1cccc(-c2cnc(C3CC3)nc2)c1)C12CC(F)(C1)C2 [Example 580, N-(3-(2-cyclopropylpyrimidin-5-yl)phenyl)-3-fluoro-N-((4-(5-(trifluoromethyl)-1,2,4-oxadiazol-3-yl)bicyclo[2.2.2]octan-1-yl)methyl)bicyclo[1.1.1]pentane-1-carboxamide] | 0.16
10 | CC(C)(Oc1ccc(-c2cccc(N(CC34CCC(c5noc(C(C)(C)F)n5)(CC3)CC4)C(=O)[C@H]3C[C@](O)(C(F)(F)F)C3)c2)cc1)C(N)=O [Example 654, (cis)-N-(4′-((1-amino-2-methyl-1-oxopropan-2-yl)oxy)-[1,1′-biphenyl]-3-yl)-N-((4-(5-(2-fluoropropan-2-yl)-1,2,4-oxadiazol-3-yl)bicyclo[2.2.2]octan-1-yl)methyl)-3-hydroxy-3-(trifluoromethyl)cyclobutane-1-carboxamide] | 0.169
11 | Cc1nc2ccc(-c3cccc(N(CC45CCC(c6ccc(C7(C#N)CC7)cc6)(CC4)OC5)C(=O)C45CC(F)(C4)C5)c3)cc2o1 [Example 347, N-((1-(4-(1-cyanocyclopropyl)phenyl)-2-oxabicyclo[2.2.2]octan-4-yl)methyl)-3-fluoro-N-(3-(2-methylbenzo[d]oxazol-6-yl)phenyl)bicyclo[1.1.1]pentane-1-carboxamide] | 0.123
12 | Cc1cnc(-c2cccc(N(CC34CCC(c5noc(C(C)(C)C)n5)(CC3)CC4)C(=O)C34CC(F)(C3)C4)c2)nc1 [Example 454, N-((4-(5-(tert-butyl)-1,2,4-oxadiazol-3-yl)bicyclo[2.2.2]octan-1-yl)methyl)-3-fluoro-N-(3-(5-methylpyrimidin-2-yl)phenyl)bicyclo[1.1.1]pentane-1-carboxamide] | 0.031
13 | CCOc1ncc(-c2cccc(N(CC34CCC(c5noc(C6(C)COC6)n5)(CC3)CC4)C(=O)[C@H]3C[C@@H](OC)C3)c2)cn1 [Example 518, (cis)-N-(3-(2-ethoxypyrimidin-5-yl)phenyl)-3-methoxy-N-((4-(5-(3-methyloxetan-3-yl)-1,2,4-oxadiazol-3-yl)bicyclo[2.2.2]octan-1-yl)methyl)cyclobutane-1-carboxamide] | 1.29
14 | CCOc1ccc(-c2cccc(N(CC34CCC(c5noc(C(C)(C)C)n5)(CC3)CC4)C(=O)C34CC(F)(C3)C4)c2)cc1 [Example 439, N-((4-(5-(tert-butyl)-1,2,4-oxadiazol-3-yl)bicyclo[2.2.2]octan-1-yl)methyl)-N-(4′-ethoxy-[1,1′-biphenyl]-3-yl)-3-fluorobicyclo[1.1.1]pentane-1-carboxamide] | 0.07
15 | CC(C)(O)c1ccc(-c2cccc(N(CC34CCC(c5noc(C(C)(C)F)n5)(CC3)CC4)C(=O)[C@H]3C[C@](O)(C(F)(F)F)C3)c2)nn1 [Example 593, (cis)-N-((4-(5-(2-fluoropropan-2-yl)-1,2,4-oxadiazol-3-yl)bicyclo[2.2.2]octan-1-yl)methyl)-3-hydroxy-N-(3-(6-(2-hydroxypropan-2-yl)pyridazin-3-yl)phenyl)-3-(trifluoromethyl)cyclobutane-1-carboxamide] | 0.566
16 | CC(C)(C)c1nc(C23CCC(CN(C(=O)C45CC(F)(C4)C5)c4cncc(-c5ncc(OC(F)F)cn5)c4)(CC2)CC3)no1 [Example 485, N-((4-(5-(tert-butyl)-1,2,4-oxadiazol-3-yl)bicyclo[2.2.2]octan-1-yl)methyl)-N-(5-(5-(difluoromethoxy)pyrimidin-2-yl)pyridin-3-yl)-3-fluorobicyclo[1.1.1]pentane-1-carboxamide] | 0.041
17 | Cc1cc(-c2cccc(N(CC34CCC(c5nc(C6CC6)no5)(CC3)CC4)C(=O)C34CC(F)(C3)C4)c2)cnc1F [Example 247, N-((4-(3-cyclopropyl-1,2,4-oxadiazol-5-yl)bicyclo[2.2.2]octan-1-yl)methyl)-3-fluoro-N-(3-(6-fluoro-5-methylpyridin-3-yl)phenyl)bicyclo[1.1.1]pentane-1-carboxamide] | 0.341
18 | O=C(N(CC12CCC(c3nc(C4CC4)no3)(CC1)CC2)c1cccc(-c2cc(Br)cn3ncnc23)c1)C12CC(F)(C1)C2 [Example 326, N-(3-(6-bromo-[1,2,4]triazolo[1,5-a]pyridin-8-yl)phenyl)-N-((4-(3-cyclopropyl-1,2,4-oxadiazol-5-yl)bicyclo[2.2.2]octan-1-yl)methyl)-3-fluorobicyclo[1.1.1]pentane-1-carboxamide] | 0.782
19 | Cn1ncc2cc(-c3cccc(N(CC45CCC(c6nc(C7CC7)no6)(CC4)CC5)C(=O)C45CC(F)(C4)C5)c3)ccc21 [Example 304, N-((4-(3-cyclopropyl-1,2,4-oxadiazol-5-yl)bicyclo[2.2.2]octan-1-yl)methyl)-3-fluoro-N-(3-(1-methyl-1H-indazol-5-yl)phenyl)bicyclo[1.1.1]pentane-1-carboxamide] | 0.248
20 | N#Cc1ccc(-c2cccc(N(CC34CCC(c5nc(C6CC6)no5)(CC3)CC4)C(=O)C34CC(F)(C3)C4)c2)cc1 [Example 302, N-(4′-cyano-[1,1′-biphenyl]-3-yl)-N-((4-(3-cyclopropyl-1,2,4-oxadiazol-5-yl)bicyclo[2.2.2]octan-1-yl)methyl)-3-fluorobicyclo[1.1.1]pentane-1-carboxamide] | 0.861
21 | CCOc1ncc(-c2cncc(N(CC34CCC(c5noc(C(C)(C)C)n5)(CC3)CC4)C(=O)C34CC(F)(C3)C4)c2)cn1 [Example 478, N-((4-(5-(tert-butyl)-1,2,4-oxadiazol-3-yl)bicyclo[2.2.2]octan-1-yl)methyl)-N-(5-(2-ethoxypyrimidin-5-yl)pyridin-3-yl)-3-fluorobicyclo[1.1.1]pentane-1-carboxamide] | 1.1
22 | COc1cc(-c2cccc(N(CC34CCC(c5ccnc(C)c5)(CC3)CC4)C(=O)C34CC(F)(C3)C4)c2)ccn1 [Example 238, 3-Fluoro-N-(3-(2-methoxypyridin-4-yl)phenyl)-N-((4-(2-methylpyridin-4-yl)bicyclo[2.2.2]octan-1-yl)methyl)bicyclo[1.1.1]pentane-1-carboxamide] | 0.517
23 | CC(C)(C)c1noc(C23CCC(CN(C(=O)C45CC(F)(C4)C5)c4cccc(-c5ccc(NS(=O)(=O)C(F)(F)F)cc5)c4)(CC2)CC3)n1 [Example 372, N-((4-(3-(tert-butyl)-1,2,4-oxadiazol-5-yl)bicyclo[2.2.2]octan-1-yl)methyl)-3-fluoro-N-(4′-((trifluoromethyl)sulfonamido)-[1,1′-biphenyl]-3-yl)bicyclo[1.1.1]pentane-1-carboxamide] | 0.131
